Assay results as given in US12076340B2, “Use of trientine to deliver copper to ischemic tissue” (INNOLIFE CO., LTD., priority 2015, dated 2024).

How the values were obtained:
[1] = system: mouse model of myocardial ischemic infarction
Protocol: (§1) In this experiment, a mouse model of myocardial ischemic infarction was established by a permanent coronary artery ligation operation.
(§2) Trientine treatment was administered to four groups of modelized mice via intragastric route twice a day at a dose of 16.75, 33.49, 55.94, or 78.25 mg/kg per day. This treatment was continued for 4 weeks.
(§3) Tissue samples were freshly frozen and stored at −80° C. before lyophilization. […] Ultrapure water was added to each vessel to dilute HNO3 to 2% for subsequent analyses of copper concentrations. Copper concentrations were determined by graphite furnace atomic absorption spectrophotometry (ICE3500, Thermo) according to the program shown in Table 1 of Example 3.

[2] = system: mouse model of myocardial ischemic infarction; details: 4 weeks
Protocol: as §1, §2
Cardiac functions were evaluated by echocardiography to assess therapeutic efficacy of trientine. All mice were subjected to transthoracic echocardiographic evaluation with a 12 MHz transducer (i13L, Vivid7, GE Ultrasound). The ejection fraction (EF) of the left ventricular was evaluated with the Simpson's single-plane method. Left-ventricular end-diastolic volume (LVEDV) and end-systolic volume (LVESV) were directly recorded, and EF was calculated using as follows: EF=(LVEDV−LVESV)/LVEDV×100%.

[3] = system: Sprague-Dawley rats with pathologic cardiac hypertrophy
Protocol: This example describes an in vivo experiment for assessing efficacy of the trientine therapy in Sprague-Dawley rats with pathologic cardiac hypertrophy. The rat model of pathologic cardiac hypertrophy was established by an ascending aortic constriction operation.
The rats were sedated by intraperitoneal injection of 10% chloral hydrate ([…]) for echocardiography measurements. At 4 months after the aortic constriction operation and at 1, 3 and 5 weeks after the trientine treatment, a series of echocardiograms were performed using an 11.5-MHz transducer (Vivid 7 Dimension, GE). Interventricular septum depth (IVSD) and left ventricular posterior wall depth (LVPWD) were obtained using two-dimensional mode by taking measurements of the short-axis cross-sectional areas and the left ventricular length.
The ejection fraction (EF) and shortening fraction (FS) of the left ventricular were evaluated with the Simpson's single-plane method. Left-ventricular end-diastolic volume (LVEDV), end-systolic volume (LVESV), end-diastolic interior diameter (LVIDd) and end-systolic interior diameter (LVIDs) were directly recorded. EF and FS were calculated according to the following formulas: EF=(LVEDV−LVESV)/LVEDV×100%, FS=(LVIDd−LVIDs)/LVIDd×100%
(§4) The aortic ascending constriction (AAC) group was divided into three groups: a control group (NS group) and two trientine treatment groups (Tr(H) group and Tr(L) group). Rats in the sham group were subjected to the same surgical procedure except for the steps of the aortic ascending constriction. The sham group rats were also divided into three groups: a control group (NS group) and two trientine treatment groups (Tr(H) group and Tr(L) group). Rats in the control groups were treated with a saline solution. Trientine was administered orally twice a day in the trientine treatment groups. Two doses of trientine (dose calculated based on trientine dihydrochloride) were administered, […]. The treatment was continued for 6 weeks.
(§5) Cardiac morphology and functions were evaluated by echocardiography, and plasma copper concentrations were measured (i.e. blood detection) to assess therapeutic efficacy of the trientine treatments according to the schedule shown in FIG. 7.

[4] = system: Rhesus monkey model of heart failure; details: 18 mg/kg/day oral two times daily, eight weeks; untreated group decreased; FIG. 12
Protocol: The ejection fraction (EF) of the left ventricular was evaluated with the Simpson's single-plane method. Left-ventricular end-diastolic volume (LVEDV) and end-systolic volume (LVESV) were directly recorded, and EF was calculated using as follows: EF=(LVEDV−LVESV)/LVEDV×100%.
(§6) Trientine treatment was subsequently conducted. In the trientine-treated group, trientine was administered to each monkey orally two times daily. The dose of trientine was 18 mg/kg/day. This treatment was continued for eight weeks. […] Cardiac functions and morphology were evaluated according to the schedule shown in FIG. 11 to assess therapeutic efficacy of trientine.

[5] = system: Rhesus monkey model of heart failure; details: 18 mg/kg/day oral, eight weeks; FIG. 13
Protocol: as §6
as §3, with “−80° °” for “−80°”
Copper concentration in the myocardium was determined by atomic absorption spectroscopy.

[6] = system: Sprague-Dawley rats with pathologic cardiac hypertrophy; details: AAC rats, trientine treatment for 6 weeks, AAC-Tr(H) and AAC-Tr(L) combined; FIG. 10A
Protocol: as §4, §5
Tissue samples were freshly frozen and stored at −80° C. before lyophilization. […] Ultrapure water was added to each vessel to dilute HNO3 to 2% for subsequent analyses of copper concentrations.

[7] = AAC rats, oral twice a day, after 3 weeks of treatment

Compound: NCCNCCNCCN [trientine, triethylenetetramine]
- dose at which copper content in the infarct area was the highest ([1]; doses tested 16.75, 33.49, 55.94, 78.25 mg/kg per day, 4 weeks): 33.49 mg/kg per day
- copper content of the infarcted area or ejection fraction at higher doses than 33.49 mg/kg per day ([1]; higher trientine doses tested (55.94, 78.25 mg/kg per day)): no further improvement
- copper concentration in the infarcted area ([1]; intragastric twice a day, 4 weeks, FIG. 16): increased significantly
- dose at which the improvement ratio of ejection fraction reached a peak ([2]; doses tested 16.75, 33.49, 55.94, 78.25 mg/kg per day): 33.49 mg/kg per day
- improvement of left ventricular ejection fraction at higher doses ([2]; intragastric twice a day, FIG. 15): decreased
- cardiac function as measured by left ventricular ejection fraction, lower doses ([2]; intragastric twice a day, 16.75-78.25 mg/kg per day, FIG. 15): improved
- IVSD as compared to the sham groups ([3]; AAC rats treated for 5 weeks): nearly normal
- LVPWD as compared to the sham groups ([3]; AAC rats treated for 5 weeks): nearly normal
- interventricular septum depth (IVSD) [3, 7]: decreased significantly
- left ventricular posterior wall depth (LVPWD) [3, 7]: decreased significantly
- IVSD values over time (continuous monitoring) ([3]; treated AAC groups, control group increased steadily, FIG. 8A): significantly downward trend
- LVPWD values over time (continuous monitoring) ([3]; treated AAC groups, control group increased steadily, FIG. 8B): significantly downward trend
- left ventricular ejection fraction (EF) ([3]; trientine-treated groups, untreated groups showed significant downward trend, FIG. 9A): did not fluctuate very significantly
- left ventricular shortening fraction (FS) ([3]; trientine-treated groups, untreated groups showed significant downward trend, FIG. 9B): did not fluctuate very significantly
- left ventricular ejection fraction [4]: increased significantly
- copper concentration, border zone, compared to untreated group [5]: increased significantly
- copper concentration, infarcted area, compared to untreated group [5]: increased significantly
- copper concentration, remote areas, treated vs untreated group [5]: comparable
- copper concentrations in the heart tissues [6]: increased
